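Results reflect a 48-hour exposure of cells in 96-well plates to compound at five concentrations. TGI marks complete inhibition of growth.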
What was measured:
Experiment in all cases: growth of human tumour cells (NCI), 48 h
786-0 renal = tested on: 786-0 renal
A498 renal = tested on: A498 renal
A549 NSCLC = tested on: A549 NSCLC
ACHN renal = tested on: ACHN renal
BT-549 breast = tested on: BT-549 breast
CAKI-1 renal = tested on: CAKI-1 renal
CCRF-CEM leukemia = tested on: CCRF-CEM leukemia
COLO 205 colon = tested on: COLO 205 colon
DU-145 prostate = tested on: DU-145 prostate
EKVX NSCLC = tested on: EKVX NSCLC
HCC-2998 colon = tested on: HCC-2998 colon
HCT-116 colon = tested on: HCT-116 colon
HCT-15 colon = tested on: HCT-15 colon
HL-60(TB) leukemia = tested on: HL-60(TB) leukemia
HOP-62 NSCLC = tested on: HOP-62 NSCLC
HOP-92 NSCLC = tested on: HOP-92 NSCLC
HS 578T breast = tested on: HS 578T breast
HT29 colon = tested on: HT29 colon
IGROV1 ovarian = tested on: IGROV1 ovarian
K-562 leukemia = tested on: K-562 leukemia
KM12 colon = tested on: KM12 colon
LOX IMVI melanoma = tested on: LOX IMVI melanoma
M14 melanoma = tested on: M14 melanoma
MALME-3M melanoma = tested on: MALME-3M melanoma
MCF7 breast = tested on: MCF7 breast
MDA-MB-231 breast = tested on: MDA-MB-231 breast
MDA-MB-435 = tested on: MDA-MB-435
NCI-H226 lung = tested on: NCI-H226 lung
NCI-H23 lung = tested on: NCI-H23 lung
NCI-H460 lung = tested on: NCI-H460 lung
NCI-H522 lung = tested on: NCI-H522 lung
NCI/ADR-RES ovarian = tested on: NCI/ADR-RES ovarian
OVCAR-3 ovarian = tested on: OVCAR-3 ovarian
OVCAR-4 ovarian = tested on: OVCAR-4 ovarian
OVCAR-5 ovarian = tested on: OVCAR-5 ovarian
OVCAR-8 ovarian = tested on: OVCAR-8 ovarian
PC-3 prostate = tested on: PC-3 prostate
RPMI-8226 leukemia = tested on: RPMI-8226 leukemia
RXF 393 renal = tested on: RXF 393 renal
SF-268 CNS = tested on: SF-268 CNS
SF-295 CNS = tested on: SF-295 CNS
SF-539 CNS = tested on: SF-539 CNS
SK-MEL-2 melanoma = tested on: SK-MEL-2 melanoma
SK-MEL-28 melanoma = tested on: SK-MEL-28 melanoma
SK-MEL-5 melanoma = tested on: SK-MEL-5 melanoma
SK-OV-3 ovarian = tested on: SK-OV-3 ovarian
SN12C renal = tested on: SN12C renal
SNB-19 CNS = tested on: SNB-19 CNS
SNB-75 CNS = tested on: SNB-75 CNS
SW-620 colon = tested on: SW-620 colon
T-47D breast = tested on: T-47D breast
TK-10 renal = tested on: TK-10 renal
U251 CNS = tested on: U251 CNS
UACC-257 melanoma = tested on: UACC-257 melanoma
UACC-62 melanoma = tested on: UACC-62 melanoma
UO-31 renal = tested on: UO-31 renal

NC(=O)c1[nH]cnc1/N=N/SCC(N)C(=O)O (stereo unspecified)
TGI (786-0 renal): > 100 µM | TGI (A498 renal): > 100 µM | TGI (A549 NSCLC): > 100 µM | TGI (ACHN renal): > 100 µM | TGI (BT-549 breast): > 100 µM | TGI (CAKI-1 renal): > 100 µM | TGI (CCRF-CEM leukemia): > 100 µM | TGI (COLO 205 colon): > 100 µM | TGI (DU-145 prostate): > 100 µM | TGI (EKVX NSCLC): > 100 µM | TGI (HCC-2998 colon): > 30.6 µM | TGI (HCT-116 colon): > 100 µM | TGI (HCT-15 colon): > 100 µM | TGI (HL-60(TB) leukemia): 6.66 µM | TGI (HOP-62 NSCLC): > 100 µM | TGI (HOP-92 NSCLC): > 100 µM | TGI (HS 578T breast): > 100 µM | TGI (HT29 colon): > 100 µM | TGI (IGROV1 ovarian): > 100 µM | TGI (K-562 leukemia): > 100 µM | TGI (KM12 colon): > 62.5 µM | TGI (LOX IMVI melanoma): > 100 µM | TGI (M14 melanoma): > 100 µM | TGI (MALME-3M melanoma): > 100 µM | TGI (MCF7 breast): > 100 µM | TGI (MDA-MB-231 breast): > 54.9 µM | TGI (MDA-MB-435): > 100 µM | TGI (NCI-H226 lung): > 100 µM | TGI (NCI-H23 lung): > 100 µM | TGI (NCI-H460 lung): > 100 µM | TGI (NCI-H522 lung): > 100 µM | TGI (NCI/ADR-RES ovarian): > 100 µM | TGI (OVCAR-3 ovarian): > 100 µM | TGI (OVCAR-4 ovarian): > 100 µM | TGI (OVCAR-5 ovarian): > 100 µM | TGI (OVCAR-8 ovarian): > 100 µM | TGI (PC-3 prostate): > 100 µM | TGI (RPMI-8226 leukemia): > 100 µM | TGI (RXF 393 renal): > 100 µM | TGI (SF-268 CNS): > 100 µM | TGI (SF-295 CNS): > 75.1 µM | TGI (SF-539 CNS): > 100 µM | TGI (SK-MEL-2 melanoma): > 100 µM | TGI (SK-MEL-28 melanoma): > 100 µM | TGI (SK-MEL-5 melanoma): > 100 µM | TGI (SK-OV-3 ovarian): > 100 µM | TGI (SN12C renal): > 58 µM | TGI (SNB-19 CNS): > 100 µM | TGI (SNB-75 CNS): > 100 µM | TGI (SW-620 colon): > 100 µM | TGI (T-47D breast): > 100 µM | TGI (TK-10 renal): > 100 µM | TGI (U251 CNS): > 100 µM | TGI (UACC-257 melanoma): > 100 µM | TGI (UACC-62 melanoma): > 100 µM | TGI (UO-31 renal): > 93.9 µM

Source: PubChem BioAssay (NCI)
